# Assay results reported in US9994546B2, “Cyclopropylamines as LSD1 inhibitors” (Incyte Corporation, priority 2014, dated 2018).
# Target: LSD-1 enzyme (Homo sapiens (Human), UniProt O60341)
# Test: LANCE LSD1/KDM1A demethylase assay (LSD1 histone demethylase biochemical assay)
# Details: 1 nM LSD-1 enzyme, 1 hour preincubation at 25° C., 0.4 μM biotin-labeled Histone H3 peptide substrate
# Protocol: LANCE LSD1/KDM1A demethylase assay—10 μL of 1 nM LSD-1 enzyme (ENZO BML-SE544-0050) in the assay buffer (50 mM Tris, pH 7.5, 0.01% Tween-20, 25 mM NaCl, 5 mM DTT) were preincubated for 1 hour at 25° C. with 0.8 μL compound/DMSO dotted in black 384 well polystyrene plates. […] After stopping the reactions plates were incubated for 30 minutes and read on a PHERAstar FS plate reader (BMG Labtech).
row,Compound,IC50
1,"CS(=O)(=O)N1CC(CC#N)(N2CCC(N[C@@H]3C[C@H]3c3ccc(F)cc3)CC2)C1 [Example 101, [3-(4-{[(1R,2S)-2-(4-fluorophenyl)cyclopropyl]amino}piperidin-1-yl)-1-(methylsulfonyl)azetidin-3-yl]acetonitrile]",≤ 100 nM
2,"CN1CC(CC(=O)O)(N2CCC(N[C@@H]3C[C@H]3c3ccccc3)CC2)C1 [Example 66, [1-methyl-3-(4-{[(1R,2S)-2-phenylcyclopropyl]amino}piperidin-1-yl)azetidin-3-yl]acetic acid]",≤ 100 nM
3,"CS(=O)(=O)N1CC(CC#N)(N2CCC(N[C@@H]3C[C@H]3c3ccccc3)CC2)C1 (relative stereo) [Example 9, (1-(Methylsulfonyl)-3-{4-[(trans-2-phenylcyclopropyl)amino]piperidin-1-yl}azetidin-3-yl)acetonitrile]",≤ 100 nM
4,"CN1CC(CC#N)(N2CCC(CN[C@@H]3C[C@H]3c3ccccc3)CC2)C1 (relative stereo) [Example 49, [1-Methyl-3-(4-{[(trans-2-phenylcyclopropyl)amino]methyl}piperidin-1-yl)azetidin-3-yl]acetonitrile]",≤ 100 nM
5,"Cn1cc(S(=O)(=O)N2CC(CC#N)(N3CCC(N[C@@H]4C[C@H]4c4ccccc4)CC3)C2)cn1 [Example 100, [1-[(1-methyl-1H-pyrazol-4-yl)sulfonyl]-3-(4-{[(1R,2S)-2-phenylcyclopropyl]amino}piperidin-1-yl)azetidin-3-yl]acetonitrile]",≤ 100 nM
6,"N#CCC1(N2CCC(N[C@@H]3C[C@H]3c3ccccc3)CC2)CN(C(=O)[C@@H]2CCOC2)C1 [Example 114, {3-(4-{[(1R,2S)-2-phenylcyclopropyl]amino}piperidin-1-yl)-1-[(3R)-tetrahydrofuran-3-ylcarbonyl]azetidin-3-yl}acetonitrile]",≤ 100 nM
7,"N#CCC1(N2CCC(N[C@@H]3C[C@H]3c3ccccc3)CC2)CN(C(=O)c2ccns2)C1 [Example 110, [1-(isothiazol-5-ylcarbonyl)-3-(4-{[(1R,2S)-2-phenylcyclopropyl]amino}piperidin-1-yl)azetidin-3-yl]acetonitrile]",≤ 100 nM
8,"CN(C)C(=O)N1CCC(CC#N)(N2CC(CN[C@@H]3C[C@H]3c3ccccc3)C2)CC1 (relative stereo) [Example 23, 4-(Cyanomethyl)-N,N-dimethyl-4-(3-{[(trans-2-phenylcyclopropyl)amino]methyl}azetidin-1-yl)piperidine-1-carboxamide]",≤ 100 nM
9,"Cn1cc(C(=O)N2CC(CC#N)(N3CCC(N[C@@H]4C[C@H]4c4ccccc4)CC3)C2)cn1 [Example 80, [1-[(1-methyl-1H-pyrazol-4-yl)carbonyl]-3-(4-{[(1R,2S)-2-phenylcyclopropyl]amino}piperidin-1-yl)azetidin-3-yl]acetonitrile]",≤ 100 nM
10,"N#CCC1(N2CCC(CN[C@@H]3C[C@H]3c3ccccc3)CC2)CN(c2cccc(Cl)c2C#N)C1 (relative stereo) [Example 38, 2-Chloro-6-[3-(cyanomethyl)-3-(4-{[(trans-2-phenylcyclopropyl)amino]methyl}piperidin-1-yl)azetidin-1-yl]benzonitrile]",≤ 100 nM
11,"N#CCC1(N2CCC(N[C@@H]3C[C@H]3c3ccc(F)cc3)CC2)CN(S(N)(=O)=O)C1 [Example 102, 3-(cyanomethyl)-3-(4-{[(1R,2S)-2-(4-fluorophenyl)cyclopropyl]amino}piperidin-1-yl)azetidine-1-sulfonamide]",≤ 100 nM
12,"N#CCC1(N2CCC(N[C@@H]3C[C@H]3c3ccccc3)CC2)CN(C(=O)C2(O)CCCC2)C1 [Example 85, [1-[(1-hydroxycyclopentyl)carbonyl]-3-(4-{[(1R,2S)-2-phenylcyclopropyl]amino}piperidin-1-yl)azetidin-3-yl]acetonitrile]",≤ 100 nM
13,"COC1CCN(C(=O)N2CC(CC#N)(N3CCC(N[C@@H]4C[C@H]4c4ccccc4)CC3)C2)CC1 [Example 88, [1-[(4-methoxypiperidin-1-yl)carbonyl]-3-(4-{[(1R,2S)-2-phenylcyclopropyl]amino}piperidin-1-yl)azetidin-3-yl]acetonitrile]",≤ 100 nM
